Measurements from patent US20250129430A1, “HIGH ATP-AFFINITY PROTEIN AS THERAPEUTIC TARGET FOR INTRACTABLE CANCER MOLECULAR SUBTYPES AND INHIBITOR THEREOF” (VeraVerse Co., Ltd., priority 2021, published 2025).

Tests used:
Assay in all cases: Cell viability drug screen, 12-point dose-response AUC
Assay type in all cases: cell-based, human
[1] = test system: SNU601; conditions: SNU601 cells; 72 hours
Procedure, shortened: (§1)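 AUC values represent the area under DMSO-normalized 12-point curves, computed by trapezoid rule and averaged over repeated experiments. Each EMT-type gastric line was exposed to half-log serial concentrations for 72 h at 37 °C, and viability was measured with a Glo luminescence kit.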

[2] = test system: MKN1; conditions: MKN1 cells; 72 hours
Procedure, shortened: as §1

[3] = test system: YCC2; conditions: YCC2 cells; 72 hours
Procedure, shortened: as §1

[4] = test system: NCC20; conditions: NCC20 cells; 72 hours
Procedure, shortened: as §1

[5] = test system: YCC3; conditions: YCC3 cells; 72 hours
Procedure, shortened: as §1

[6] = test system: SK4; conditions: SK4 cells (SEM subtype); 72 hours
Procedure, shortened: as §1

[7] = test system: YCC11; conditions: YCC11 cells (SEM subtype); 72 hours
Procedure, shortened: as §1

[8] = test system: NCC24; conditions: NCC24 cells; 72 hours
Procedure, shortened: as §1

[9] = test system: SNU484; conditions: SNU484 cells (SEM subtype); 72 hours
Procedure, shortened: as §1

[10] = test system: SNU1; conditions: SNU1 cells; 72 hours
Procedure, shortened: as §1

[11] = test system: SNU620; conditions: SNU620 cells; 72 hours
Procedure, shortened: as §1

[12] = test system: MKN74; conditions: MKN74 cells; 72 hours
Procedure, shortened: (§2)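 AUC comes from 12-point half-log dose–response curves, normalized to DMSO-treated cells and integrated trapezoidally, repeats averaged. Luminescent viability read after 72 h compound exposure at 37 °C; cells plated 5×10^3 per well 24 h before dosing.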

[13] = test system: MKN28; conditions: MKN28 cells; 72 hours
Procedure, shortened: as §1

[14] = test system: SNU719; conditions: SNU719 cells; 72 hours
Procedure, shortened: as §2

[15] = test system: SNU1967; conditions: SNU1967 cells; 72 hours
Procedure, shortened: as §1

[16] = test system: SNU16; conditions: SNU16 cells; 72 hours
Procedure, shortened: as §1

[17] = test system: NCI_N87; conditions: NCI_N87 cells; 72 hours
Procedure, shortened: as §1

[18] = test system: AGS; conditions: AGS cells (non-SEM subtype); 72 hours
Procedure, shortened: as §2

[19] = test system: OCUM1; conditions: OCUM1 cells; 72 hours
Procedure, shortened: as §1

[20] = test system: Hs746T; conditions: Hs746T cells (SEM subtype); 72 hours
Procedure, shortened: as §1

[21] = test system: KATO3; conditions: KATO3 cells; 72 hours
Procedure, shortened: as §1

[22] = test system: SNU1750; conditions: SNU1750 cells (SEM subtype); 72 hours
Procedure, shortened: as §1

[23] = test system: SNU638; conditions: SNU638 cells; 72 hours
Procedure, shortened: as §1

[24] = test system: MKN45; conditions: MKN45 cells (non-SEM subtype); 72 hours
Procedure, shortened: as §2

[25] = test system: NCC59; conditions: NCC59 cells; 72 hours
Procedure, shortened: as §1

[26] = test system: SNU216; conditions: SNU216 cells (non-SEM subtype); 72 hours
Procedure, shortened: as §2

[27] = test system: NCC19; conditions: NCC19 cells; 72 hours
Procedure, shortened: as §1

[28] = test system: SNU668; conditions: SNU668 cells (SEM subtype); 72 hours
Procedure, shortened: as §1

[29] = test system: FU97; parameters: Average Area Under the Viability Curve (AUC), AUC norm value: scale not given here; conditions: FU97 cells; 72 hours
Procedure, shortened: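 Trapezoidal AUC of a 12-point, DMSO-normalized dose-response curve. Luminescent viability was measured after 72 h of exposure at 37° C to half-log serial dilutions (0.5% DMSO control), dosed 24 h after plating FU97 cells at 5×10^3 per well.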

Row | Structure (SMILES) | Average Area Under the Viability Curve (AUC), AUC norm value [1] | Average Area Under the Viability Curve (AUC), AUC norm value [2] | Average Area Under the Viability Curve (AUC), AUC norm value [3] | Average Area Under the Viability Curve (AUC), AUC norm value [4] | Average Area Under the Viability Curve (AUC), AUC norm value [5] | Average Area Under the Viability Curve (AUC), AUC norm value [6] | Average Area Under the Viability Curve (AUC), AUC norm value [7] | Average Area Under the Viability Curve (AUC), AUC norm value [8] | Average Area Under the Viability Curve (AUC), AUC norm value [9] | Average Area Under the Viability Curve (AUC), AUC norm value [10] | Average Area Under the Viability Curve (AUC), AUC norm value [11] | Average Area Under the Viability Curve (AUC), AUC norm value [12] | Average Area Under the Viability Curve (AUC), AUC norm value [13] | Average Area Under the Viability Curve (AUC), AUC norm value [14] | Average Area Under the Viability Curve (AUC), AUC norm value [15] | Average Area Under the Viability Curve (AUC), AUC norm value [16] | Average Area Under the Viability Curve (AUC), AUC norm value [17] | Average Area Under the Viability Curve (AUC), AUC norm value [18] | Average Area Under the Viability Curve (AUC), AUC norm value [19] | Average Area Under the Viability Curve (AUC), AUC norm value [20] | other results
1 | COc1cc(N2CCC(N3CCN(C)CC3)CC2)ccc1Nc1ncc(Cl)c(Nc2ccccc2S(=O)(=O)C(C)C)n1 [TAE684 (NVP-TAE684), TAE684] | 1.062 | 0 | −0.5512 | −2.659 | 1.708 | −0.6572 | −1.4836 | 1.662 | −0.6182 | −0.1185 | 0.4637 | −0.04126 | −0.4177 | 1.051 | −1.412 | −3.18 | 2.003 | −1.326 | −0.2195 | 1.039 | Average Area Under the Viability Curve (AUC), AUC norm value [21]: 0.2672; Average Area Under the Viability Curve (AUC), AUC norm value [22]: −0.941; Average Area Under the Viability Curve (AUC), AUC norm value [23]: 0.4071; Average Area Under the Viability Curve (AUC), AUC norm value [24]: 2.601; Average Area Under the Viability Curve (AUC), AUC norm value [25]: 1.273; Average Area Under the Viability Curve (AUC), AUC norm value [26]: 0.5205; Average Area Under the Viability Curve (AUC), AUC norm value [27]: 1.944; Average Area Under the Viability Curve (AUC), AUC norm value [28]: 1.009; Average Area Under the Viability Curve (AUC), AUC norm value [29]: −1.587
2 | COc1cc([C@@H]2c3cc4c(cc3[C@@H](O[C@@H]3O[C@@H]5CO[C@@H](c6cccs6)O[C@H]5[C@H](O)[C@H]3O)[C@H]3COC(=O)[C@H]23)OCO4)cc(OC)c1O [Teniposide (Vumon), Teniposide] | −1.094 | −1.955 | 0.249 | −0.8716 | 2.1949 | −0.2681 | −1.342 | −0.5766 | −1.211 | −0.3019 | 0 | 0.3993 | 0.1008 | 2.899 | −0.7519 | −0.8192 | 2.319 | −2.042 | 1.001 | 0.6261 | Average Area Under the Viability Curve (AUC), AUC norm value [21]: 1.852; Average Area Under the Viability Curve (AUC), AUC norm value [22]: −0.5618; Average Area Under the Viability Curve (AUC), AUC norm value [23]: −0.3584; Average Area Under the Viability Curve (AUC), AUC norm value [24]: 1.933; Average Area Under the Viability Curve (AUC), AUC norm value [25]: 1.59; Average Area Under the Viability Curve (AUC), AUC norm value [26]: 0.9296; Average Area Under the Viability Curve (AUC), AUC norm value [27]: 2.415; Average Area Under the Viability Curve (AUC), AUC norm value [28]: −0.6175; Average Area Under the Viability Curve (AUC), AUC norm value [29]: 1.309
3 | CC(C)(C)c1ccc(C(O)CCCN2CCC(C(O)(c3ccccc3)c3ccccc3)CC2)cc1 (stereo not drawn) [Terfenadine] | 2.641 | −0.8127 | 0.4862 | −1.029 | 1.423 | −0.8713 | −0.996 | −2.355 | 0.06057 | 1.34 | 0.4918 | −1.589 | −0.2901 | 1.059 | −1.065 | 0 | 1.465 | −1.278 | 1.032 | −0.3246 | Average Area Under the Viability Curve (AUC), AUC norm value [21]: 0.4901; Average Area Under the Viability Curve (AUC), AUC norm value [22]: −0.05758; Average Area Under the Viability Curve (AUC), AUC norm value [23]: −0.8091; Average Area Under the Viability Curve (AUC), AUC norm value [24]: −0.5441; Average Area Under the Viability Curve (AUC), AUC norm value [25]: 2.3563; Average Area Under the Viability Curve (AUC), AUC norm value [26]: 1.499; Average Area Under the Viability Curve (AUC), AUC norm value [27]: 3.135; Average Area Under the Viability Curve (AUC), AUC norm value [28]: −0.5647; Average Area Under the Viability Curve (AUC), AUC norm value [29]: 1.163
